Ends that are not written are not given here.
What was measured:
BK-induced rat paw edema = test: Bradykinin-potentiating activity in vivo (rat paw edema); parameters: species or system Male Wistar rats; conditions: intraplantar BK 40 ng/mL (2 ng in 50 μL saline)
Method: Male Wistar (200 g-250 g) rats, bred at the Nuclear and Energy Research Institute (IPEN), São Paulo, SP, Brazil were used for the in vivo assays. The animals had access to food and water ad libitum, and were kept under a 12 h-light/dark cycle. Procedures involving animals and their care were in accordance with the guidelines for the use of animals on biomedical research and were approved by the Animal Ethics Committee (protocol 171/16) of IPEN.
Edema was induced by intraplantar injection of 2 ng of BK diluted in 50 μL saline into the left hind paw, which was measured every 5 min for 40 min by a plethysmograph (H. Basile, Italy). The right paw was injected with 50 μL […] saline (NaCl 0.9% w/v). In parallel, a group was injected with the synthetic potentiating peptide (40 ng/mL) in the left paw 10 min before the injection of BK, in order to evaluate the potentiation of BK. In both cases, the volume of the right paw was subtracted from that of volume of the left paw, to give net edema, expressed in μL.
One-way analysis of variance (ANOVA) was performed. The significance level was considered as p < 0.05.

paw edema = test system: paw edema; parameters: method as in PMID 15688321; conditions: previous study, similar approach; cited from earlier work

| Substance | time at which induced edema was detectable (BK-induced rat paw edema; plethysmograph) [min] | time course of edema (in words) (BK-induced rat paw edema; plethysmograph every 5 min for 40 min) | paw edema (in words) (paw edema) |
| --- | --- | --- | --- |
| Bradykinin (RPPGFSPFR; also: acetate salt; UniProt P01042 381-389, looked up) [BK] | 5 | declined at a constant rate over the next 40 min | – |
| QWAQWPRPQIPP [BPP9a, B. jararaca BPP9a] | – | – | intense and fast paw edema |

— publication PMC5485657 (The Journal of Venomous Animals and Toxins Including …, 2017)
